Experimental data taken from patent US6863898B2, “Method and composition for treating hairy hoof warts” (priority 2002, dated 2005).

Tested on: hairy hoof warts
Assay: Footwrap application of aspirin compositions to infected hoofs of cows with hairy hoof warts
Assay type: in vivo
Conditions: topical; for healing of hairy hoof wart infections (result in words): 23 cubic centimeters in a footwrap left on the hoof about fourteen days
Method: In testing the method of the subject invention on cows with hairy hoof warts, an aspirin composition (100% aspirin powder) was administered to the infected hoof by incorporating the aspirin into a conventional footwrap and wrapping the footwrap about an animal's hoof so that the aspirin was applied to an infected area of an animal's hoof. The aspirin composition of the subject invention that includes about 75% by weight aspirin powder, about 5% by weight hydrated lime, about 15% by weight sodium bentonite, and about 5% by weight chalk was also tested in the same manner. With the application of the aspirin compositions to the infected hoof areas by this method, the infection progressively diminished and the hairy hoof warts were typically healed within about fourteen days. In the method of the subject invention for treating anchor preventing hairy hoof warts, an aspirin composition of 100% aspirin, a composition of another compound or derivative of salicylic acid of 100% of the other compound or derivative, an aspirin containing composition, or a composition containing another compound or derivative of salicylic acid is administered in an effective amount to an infected area of an animal's hoof or, as a preventive measure, to an area of an animal's hoof that could be infected. In a preferred embodiment of the method of the subject invention, the composition of or containing aspirin or another compound or derivative of salicylic acid is incorporated into a conventional footwrap, such as but not limited to a footwrap sold by Minnesota Mining and Manufacturing under the trade designation “[…]”. The footwrap is then applied to an animal's hoof with the composition being applied to the infected area of the hoof or, as a preventive measure, to an area of potential hoof infection. […]

## CC(=O)Oc1ccccc1C(=O)O [100% aspirin powder, aspirin]
Listed as 100% powdered aspirin composition
  healing of hairy hoof wart infections (result in words): successful in healing even severe hairy hoof wart infections
Listed as aspirin composition of 100% aspirin
  healing of hairy hoof wart infections (result in words): appeared to achieve the best results
Composition in a conventional footwrap on the infected hoof area, typical value
  time until the hairy hoof warts were healed: fourteen
